Laboratory results taken from US9707184B2, “Immediate release abuse deterrent liquid fill dosage form” (priority 2014, dated 2017).

Assay: Solubility of the formulation components in water and alcohol
Format: physicochemical
Settings: 200 proof ethanol, filtered through a 0.45 micrometer PTFE filter
Description: Dyes can also be used and chosen to be soluble in both water and alcohol to produce a dark colored solution upon extraction and filtering as a visual deterrent to abuse. The formulation can include the following components listed in the Table 8 below, including a number of different dyes.

SMILES: CCN(Cc1cccc(S(=O)(=O)[O-])c1)c1ccc(C(=C2C=CC(=[N+](CC)Cc3cccc(S(=O)(=O)[O-])c3)C=C2)c2ccccc2S(=O)(=O)[O-])cc1.[Na+].[Na+] [FD&C Blue #1]
- Alcohol Solubility (Tested): Yes

SMILES: COc1cc(S(=O)(=O)[O-])c(C)cc1N=Nc1c(O)ccc2cc(S(=O)(=O)[O-])ccc12.[Na+].[Na+] [FD&C Red #40]
- Alcohol Solubility (Tested): Yes

SMILES: COc1ccc2c3c1O[C@H]1C(=O)CC[C@@]4(O)[C@@H](C2)N(C)CC[C@]314.Cl [Oxycodone HCl, reference compound]
- Alcohol Solubility (Tested): Yes
